Columns and labels:
Escherichia coli DC-2 = assay: in vitro antibacterial activity, agar dilution MIC; type: cell-based; settings: Organism code SS; BHI agar, 35-37° C., 20 to 24 hours
Protocol: (§1) Representative compounds of the present invention were assayed in vitro for antibacterial activity as follows: Twelve petri dishes containing successive aqueous dilutions of the test compound mixed with 10 mL of sterilized Brain Heart Infusion (BHI) agar (Difco 0418-01-5) were prepared. Each plate was inoculated with 1:100 (or 1:10 for slow-growing strains, such as Micrococcus and Streptococcus) dilutions of up to 32 different microorganisms, using a Steers replicator block. […] In addition, a control plate, using BHI agar containing no test compound, was prepared and incubated at the beginning and end of each test.
(§2) An additional plate containing a compound having known susceptibility patterns for the organisms being tested and belonging to the same antibiotic class as the test compound was also prepared and incubated as a further control, as well as to provide test-to-test comparability.
(§3) After incubation, each plate was visually inspected. The minimum inhibitory concentration (MIC) was defined as the lowest concentration of drug yielding no growth, a slight haze, or sparsely isolated colonies on the inoculum spot as compared to the growth control.

[1] = system: Streptococcus Pheumoniae 5979; assay: in vitro antibacterial activity, agar dilution MIC; type: cell-based; settings: Organism code ZZ; BHI agar, 35-37° C., 20 to 24 hours
Protocol: as §1, §2, §3

| Compound | minimum inhibitory concentration (MIC) (Escherichia coli DC-2) | minimum inhibitory concentration (MIC) [1] |
| --- | --- | --- |
| CC[C@H]1OC(=O)[C@H](C)C(=O)[C@H](C)[C@@H](O[C@@H]2O[C@H](C)C[C@H](N(C)CCF)[C@H]2O)[C@](C)(OCC=Cc2cnc3ccccc3c2)C[C@@H](C)C(=O)[C@H](C)[C@H]2NC(=O)O[C@@]21C [Example 7] | > 100 | – |
| CC[C@H]1OC(=O)[C@H](C)C(=O)[C@H](C)[C@@H](O[C@@H]2O[C@H](C)C[C@H](N(C)CC#N)[C@H]2O)[C@](C)(OCC=Cc2cnc3ccccc3c2)C[C@@H](C)C(=O)[C@H](C)[C@H]2NC(=O)O[C@@]21C [Example 9] | – | 128 |
| CC[C@H]1OC(=O)[C@H](C)C(=O)[C@H](C)[C@@H](O[C@@H]2O[C@H](C)C[C@H](N(C)Cc3cccnc3)[C@H]2O)[C@](C)(OCC=Cc2cnc3ccccc3c2)C[C@@H](C)C(=O)[C@H](C)[C@H]2NC(=O)O[C@@]21C [Example 14] | – | > 128 |
| CC[C@H]1OC(=O)[C@H](C)C(=O)[C@H](C)[C@@H](O[C@@H]2O[C@H](C)C[C@H](N(C)CC3CC3)[C@H]2O)[C@](C)(OCC=Cc2cnc3ccccc3c2)C[C@@H](C)C(=O)[C@H](C)[C@H]2NC(=O)O[C@@]21C [Example 15] | – | > 128 |
| CCCN(C)[C@H]1C[C@@H](C)O[C@@H](O[C@@H]2[C@@H](C)C(=O)[C@@H](C)C(=O)O[C@H](CC)[C@@]3(C)OC(=O)N[C@@H]3[C@@H](C)C(=O)[C@H](C)C[C@@]2(C)OCC=Cc2cnc3ccccc3c2)[C@@H]1O [Example 16] | – | 128 |
| C=C(CN(C)[C@H]1C[C@@H](C)O[C@@H](O[C@@H]2[C@@H](C)C(=O)[C@@H](C)C(=O)O[C@H](CC)[C@@]3(C)OC(=O)N[C@@H]3[C@@H](C)C(=O)[C@H](C)C[C@@]2(C)OCC=Cc2cnc3ccccc3c2)[C@@H]1O)C(=O)OC [Example 18] | – | 128 |
| C=C(C)CN(C)[C@H]1C[C@@H](C)O[C@@H](O[C@@H]2[C@@H](C)C(=O)[C@@H](C)C(=O)O[C@H](CC)[C@@]3(C)OC(=O)N[C@@H]3[C@@H](C)C(=O)[C@H](C)C[C@@]2(C)OCC=Cc2cnc3ccccc3c2)[C@@H]1O [Example 19] | – | 128 |

Reference: patent US6034069A, “3-'N-modified 6-O-substituted erythromycin ketolide derivatives having antibacterial activity” (priority 1998, dated 2000)
